Experimental data reported in PubChem BioAssay (NCI).
“And” between values parts separate entries of the source, which are not always exact repeats. Identical values can stand only once.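 A five-concentration, 48-hour dose response in 96-well plates underlies each endpoint, interpolated linearly between surrounding concentrations. GI50: concentration for 50% inhibition of growth. TGI: total growth inhibition.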

Test system: MOLT-4 leukemia
Test: NCI anticancer screen, dose series, 48 h

Row | Compound | TGI
1 | COc1ccc2ccc3oc(=O)c(C)cc3c2c1 | > 100 µM
2 | CCCCCCN(CCCCCC)C(=S)N/N=C(\C)c1ccccn1 | 5.79 µM
3 | CN(C)c1nc(Oc2nc(N(C)C)nc(N(C)C)n2)nc(N(C)C)n1 | > 100 µM
4 | O=c1c(F)cn2c(=O)n1CCCCCCCn1c(=O)c(F)cn(c1=O)CCCCCCC2 | > 100 µM
5 | O=C(ON=C1c2ccccc2C(Br)C(Br)c2ccccc21)c1ccccc1 (stereo not given) | 4.61 µM
6 | CN(C)CCn1c(=O)c2ccc(NCCCN(C)CCCNc3ccc4c(=O)n(CCN(C)C)c(=O)n5c6ccc(O)cc6c(=O)c3c45)c3c(=O)c4cc(O)ccc4n(c1=O)c23 | < 0.0289 µM
7 | Cn1c2ccccc2n2c3ncccc3c(=O)c(C#N)c12 | > 100 µM
8 | S=C(Cc1ccc2c(c1)Sc1ccccc1O2)N1CCOCC1 | > 100 µM
9 | C[n+]1cc2cc(O)c(O)cc2c2ccc3cc(O)c(O)cc3c21 | 11.2 µM
10 | COc1ccc(N=Nc2c(-c3c(OC)cc4occc4c3OC)[nH]c(=O)c(C#N)c2C)cc1 | > 100 µM
11 | O=C(/C=C/c1ccc(Cl)cc1)Oc1ccc(C=C2CCC/C(=C\c3ccc(OC(=O)/C=C/c4ccc(Cl)cc4)cc3)C2=O)cc1 | > 100 µM
12 | c1ccc2c(c1)SCCCS2 | > 100 µM
13 | COc1ccc2c(c1)c1c(n2CCN2CCCCC2)-c2cccc(OC)c2CC1 | 48 µM
14 | O=[N+]([O-])c1ccc(C[P+]2(c3ccccc3)CCCCC2)cc1 | > 100 µM
15 | COc1ccc2nc(NC(=O)/C(C#N)=C/c3ccccc3)sc2c1 | > 100 µM
16 | Cc1c(C)n(-c2ccccc2)c2nc(S(C)=O)nc(S(C)=O)c12 (stereo not given) | 5.57 µM
17 | CC1(C)CC(=O)C2=C(C1)C(c1ccccc1Cl)C1C(=O)CC(C)(C)CC1(O)O2 (stereo not given) | > 100 µM
18 | Cn1nc(-c2ccc(S(=O)(=O)/N=C(\NN)Nc3ccc(Cl)cc3)s2)cc1C(F)(F)F | 22.4 µM
19 | C[C@]12CCC3[C@@H](CCC45OC4C(=O)CC[C@]35C)C1Cc1cnn(-c3ccc(F)cc3)c1N2 (stereo not given in full) | 94.7 µM
20 | CCc1c(O)cc(=O)oc1-c1ccc(OC)c(OC)c1 | > 100 µM
21 | Cc1ccc2c(c1C)C(=O)C1(Cc3cc4c(cc3C1=O)CCC4)C2 (stereo not given) | > 100 µM
22 | CCCCI(O)OS(=O)(=O)c1ccc(C)cc1 | > 100 µM

Row | Compound | TGI
23 | O=C(CCc1cc(O)cc(O)c1)NCCc1cc(OCc2ccccc2)cc(OCc2ccccc2)c1 | 22.7 µM
24 | Clc1cccc(-c2sc(-c3cccs3)cc2Cc2cccs2)c1 | > 10 µM
25 | c1ccc(C2=NC3OC2c2ccccc23)cc1 (stereo not given) | > 10 µM
26 | O=c1oc2ccc3ccccc3c2cc1-c1cn2ccsc2n1 | 14.9 µM
27 | CCOC(=O)CSc1nc(N)c2c(-c3ccccc3)c3c(nc2n1)CCCC3 | > 100 µM
28 | COC(=O)/C=C(/C=C1/C(C#N)=C(N)N(c2ccc(Cl)cc2)C1(C)/C(=C\C(=O)OC)C(=O)OC)C(=O)OC (stereo not given) | 78.9 µM
29 | Cc1c2ccnc(C(N)=O)c2c(C)c2c1[nH]c1ccccc12 | 25.1 µM and 12.9 µM
30 | Cc1ccccc1-c1nc2c(N)nc(N)nc2nc1N | > 100 µM
31 | O=c1c2c3c(sc2[nH]c(=S)n1-c1ccccc1)CCCc1ccc([N+](=O)[O-])cc1-3 | 52 µM
32 | CCOC(=O)c1c(N2CCCC2)[nH]c(=O)c(C(c2ccc(OC)cc2)c2c(O)c(C(=O)OCC)c(N3CCCC3)[nH]c2=O)c1O | > 100 µM
33 | CC1CC(N2CCOCC2)=Nc2ccccc2N1C (stereo not given) | > 100 µM
34 | CCOC1C=CC(=O)C(CO)O1 (stereo not given) | 21.2 µM
35 | COC(=O)CC(=O)OSc1ccccc1 | > 100 µM
36 | CC(C)C(Br)CCC1=CCC(Br)(Br)C1 (stereo not given) | > 100 µM
37 | Cc1cc([N+](=O)[O-])c(C)c2c1[nH]c1ccc(Cl)cc12 | > 100 µM
38 | COCOc1ccc(C(=O)Oc2cccc3c2OC(C)(C)O3)c(OCOC)c1 | > 100 µM
39 | COC(=O)CNC(=O)C(CSC(=O)OCC1c2ccccc2-c2ccccc21)NC(=O)CCC(NC(=O)OCC1c2ccccc2-c2ccccc21)C(=O)OC (stereo not given) | 56.8 µM
40 | COc1ccc(CNc2cnc3ccc(N)cc3n2)cc1 | > 100 µM
41 | COc1cc2ccc3c4cc(OC)c(OC)cc4c[n+](C)c3c2cc1O | > 100 µM
42 | COc1cccc(C2c3cc4c(cc3OC(O)C2C)OCO4)c1OC (stereo not given) | 18.5 µM
43 | CCOC(=O)/C=C/c1nc(C#N)c(N)o1 | > 100 µM

Test system: HOP-62 NSCLC
Test: NCI anticancer screen, dose series, 48 h

Row | Compound | TGI | GI50
44 | COc1ccc2ccc3oc(=O)c(C)cc3c2c1 | > 100 µM | –
45 | CCCCCCN(CCCCCC)C(=S)N/N=C(\C)c1ccccn1 | 3.32 µM | –
46 | O=c1c(F)cn2c(=O)n1CCCCCCCn1c(=O)c(F)cn(c1=O)CCCCCCC2 | > 100 µM | –
47 | O=C(ON=C1c2ccccc2C(Br)C(Br)c2ccccc21)c1ccccc1 (stereo not given) | 17.3 µM | –
48 | CN(C)CCn1c(=O)c2ccc(NCCCN(C)CCCNc3ccc4c(=O)n(CCN(C)C)c(=O)n5c6ccc(O)cc6c(=O)c3c45)c3c(=O)c4cc(O)ccc4n(c1=O)c23 | 1.51 µM | –
49 | Cn1c2ccccc2n2c3ncccc3c(=O)c(C#N)c12 | 29.5 µM | –
50 | S=C(Cc1ccc2c(c1)Sc1ccccc1O2)N1CCOCC1 | > 100 µM | –
51 | C[n+]1cc2cc(O)c(O)cc2c2ccc3cc(O)c(O)cc3c21 | 10.8 µM | –
52 | COc1ccc(N=Nc2c(-c3c(OC)cc4occc4c3OC)[nH]c(=O)c(C#N)c2C)cc1 | > 100 µM | –
53 | O=C(/C=C/c1ccc(Cl)cc1)Oc1ccc(C=C2CCC/C(=C\c3ccc(OC(=O)/C=C/c4ccc(Cl)cc4)cc3)C2=O)cc1 | > 100 µM | –
54 | c1ccc2c(c1)SCCCS2 | > 100 µM | –
55 | COc1ccc2c(c1)c1c(n2CCN2CCCCC2)-c2cccc(OC)c2CC1 | 32.4 µM | –
56 | O=[N+]([O-])c1ccc(C[P+]2(c3ccccc3)CCCCC2)cc1 | > 100 µM | –
57 | COc1ccc2nc(NC(=O)/C(C#N)=C/c3ccccc3)sc2c1 | > 100 µM | –
58 | Cc1c(C)n(-c2ccccc2)c2nc(S(C)=O)nc(S(C)=O)c12 (stereo not given) | 36.5 µM | –
59 | CC1(C)CC(=O)C2=C(C1)C(c1ccccc1Cl)C1C(=O)CC(C)(C)CC1(O)O2 (stereo not given) | > 100 µM | –
60 | Cn1nc(-c2ccc(S(=O)(=O)/N=C(\NN)Nc3ccc(Cl)cc3)s2)cc1C(F)(F)F | 32.3 µM | –
61 | C[C@]12CCC3[C@@H](CCC45OC4C(=O)CC[C@]35C)C1Cc1cnn(-c3ccc(F)cc3)c1N2 (stereo not given in full) | > 100 µM | –
62 | CCc1c(O)cc(=O)oc1-c1ccc(OC)c(OC)c1 | > 100 µM | –
63 | CCCCI(O)OS(=O)(=O)c1ccc(C)cc1 | > 100 µM | –
64 | O=C(CCc1cc(O)cc(O)c1)NCCc1cc(OCc2ccccc2)cc(OCc2ccccc2)c1 | 36.8 µM | –

Row | Compound | TGI | GI50
65 | Clc1cccc(-c2sc(-c3cccs3)cc2Cc2cccs2)c1 | > 10 µM | –
66 | c1ccc(C2=NC3OC2c2ccccc23)cc1 (stereo not given) | > 10 µM | –
67 | O=c1oc2ccc3ccccc3c2cc1-c1cn2ccsc2n1 | > 100 µM | –
68 | CCOC(=O)CSc1nc(N)c2c(-c3ccccc3)c3c(nc2n1)CCCC3 | > 100 µM | –
69 | COC(=O)/C=C(/C=C1/C(C#N)=C(N)N(c2ccc(Cl)cc2)C1(C)/C(=C\C(=O)OC)C(=O)OC)C(=O)OC (stereo not given) | > 100 µM | –
70 | Cc1c2ccnc(C(N)=O)c2c(C)c2c1[nH]c1ccccc12 | 26.8 µM and 16.9 µM | 4.03 µM
71 | Cc1ccccc1-c1nc2c(N)nc(N)nc2nc1N | > 100 µM | –
72 | O=c1c2c3c(sc2[nH]c(=S)n1-c1ccccc1)CCCc1ccc([N+](=O)[O-])cc1-3 | > 100 µM | –
73 | CCOC(=O)c1c(N2CCCC2)[nH]c(=O)c(C(c2ccc(OC)cc2)c2c(O)c(C(=O)OCC)c(N3CCCC3)[nH]c2=O)c1O | > 100 µM | –
74 | CC1CC(N2CCOCC2)=Nc2ccccc2N1C (stereo not given) | > 100 µM | –
75 | CCOC1C=CC(=O)C(CO)O1 (stereo not given) | 28.4 µM | –
76 | COC(=O)CC(=O)OSc1ccccc1 | 53.4 µM | –
77 | CC(C)C(Br)CCC1=CCC(Br)(Br)C1 (stereo not given) | 30.8 µM | –
78 | Cc1cc([N+](=O)[O-])c(C)c2c1[nH]c1ccc(Cl)cc12 | > 100 µM | –
79 | COCOc1ccc(C(=O)Oc2cccc3c2OC(C)(C)O3)c(OCOC)c1 | > 100 µM | –
80 | COC(=O)CNC(=O)C(CSC(=O)OCC1c2ccccc2-c2ccccc21)NC(=O)CCC(NC(=O)OCC1c2ccccc2-c2ccccc21)C(=O)OC (stereo not given) | 40.2 µM | –
81 | COc1ccc(CNc2cnc3ccc(N)cc3n2)cc1 | > 100 µM | –
82 | COc1cc2ccc3c4cc(OC)c(OC)cc4c[n+](C)c3c2cc1O | > 100 µM | –
83 | COc1cccc(C2c3cc4c(cc3OC(O)C2C)OCO4)c1OC (stereo not given) | 80.1 µM | –
84 | CCOC(=O)/C=C/c1nc(C#N)c(N)o1 | > 100 µM | –

Test system: A549 NSCLC
Test: NCI anticancer screen, dose series, 48 h

Row | Compound | TGI
85 | COc1ccc2ccc3oc(=O)c(C)cc3c2c1 | > 100 µM
86 | CCCCCCN(CCCCCC)C(=S)N/N=C(\C)c1ccccn1 | 3.66 µM
87 | CN(C)c1nc(Oc2nc(N(C)C)nc(N(C)C)n2)nc(N(C)C)n1 | > 100 µM
88 | O=c1c(F)cn2c(=O)n1CCCCCCCn1c(=O)c(F)cn(c1=O)CCCCCCC2 | > 100 µM
89 | O=C(ON=C1c2ccccc2C(Br)C(Br)c2ccccc21)c1ccccc1 (stereo not given) | 44 µM
90 | CN(C)CCn1c(=O)c2ccc(NCCCN(C)CCCNc3ccc4c(=O)n(CCN(C)C)c(=O)n5c6ccc(O)cc6c(=O)c3c45)c3c(=O)c4cc(O)ccc4n(c1=O)c23 | 0.786 µM
91 | Cn1c2ccccc2n2c3ncccc3c(=O)c(C#N)c12 | > 36.7 µM
92 | S=C(Cc1ccc2c(c1)Sc1ccccc1O2)N1CCOCC1 | > 100 µM
93 | C[n+]1cc2cc(O)c(O)cc2c2ccc3cc(O)c(O)cc3c21 | > 100 µM
94 | COc1ccc(N=Nc2c(-c3c(OC)cc4occc4c3OC)[nH]c(=O)c(C#N)c2C)cc1 | > 100 µM
95 | O=C(/C=C/c1ccc(Cl)cc1)Oc1ccc(C=C2CCC/C(=C\c3ccc(OC(=O)/C=C/c4ccc(Cl)cc4)cc3)C2=O)cc1 | > 100 µM
96 | c1ccc2c(c1)SCCCS2 | > 100 µM
97 | COc1ccc2c(c1)c1c(n2CCN2CCCCC2)-c2cccc(OC)c2CC1 | > 100 µM
98 | O=[N+]([O-])c1ccc(C[P+]2(c3ccccc3)CCCCC2)cc1 | > 100 µM
99 | COc1ccc2nc(NC(=O)/C(C#N)=C/c3ccccc3)sc2c1 | > 100 µM
100 | Cc1c(C)n(-c2ccccc2)c2nc(S(C)=O)nc(S(C)=O)c12 (stereo not given) | 31.7 µM
101 | CC1(C)CC(=O)C2=C(C1)C(c1ccccc1Cl)C1C(=O)CC(C)(C)CC1(O)O2 (stereo not given) | > 100 µM
102 | Cn1nc(-c2ccc(S(=O)(=O)/N=C(\NN)Nc3ccc(Cl)cc3)s2)cc1C(F)(F)F | 29.3 µM
103 | C[C@]12CCC3[C@@H](CCC45OC4C(=O)CC[C@]35C)C1Cc1cnn(-c3ccc(F)cc3)c1N2 (stereo not given in full) | > 100 µM
104 | CCc1c(O)cc(=O)oc1-c1ccc(OC)c(OC)c1 | > 100 µM
